Reference: patent US20060205673A1, “2-Amino-3-hydroxy-4-tert-leucyl-amino-5-phenyl-pentanoic acid amide derivatives” (priority 2000, published 2006)

molecular target: T1, purified human placenta 20S proteasome (Homo sapiens, UniProt P28074); assay: Inhibition of the chymotrypsin-like activity of the 20S proteasome (Suc-LLVY-AMC hydrolysis); assay type: biochemical; settings: Suc-LLVY-AMC substrate, 60 min preincubation at room temperature, Table 1
T1 construct: 1 μl purified human placenta 20S proteasome; tissue Diabetes Forschungsinstitut, Düsseldorf, Germany; host or cells: human placenta
Source text: It is based on the hydrolysis of the fluorogenic peptide Suc-LLVY-AMC (Succinyl-leucine-leucine-valine-tyrosine-7-amino-4-methyl-coumarin), which is cleaved exclusively at the Y-AMC bond by the 20S proteasome. Hydrolysis of this peptide is accompanied by an increase in fluorescence intensity [λex (excitation wavelength): 355 nm; λem (emission wavelength): 460 nm] due to release of the internally quenched […] fluorescence that accompanies diffusion apart of the hydrolysis product Suc-LLVY.
2 μl of a 1 mM solution of a test compound in DMSO (dimethylsulfoxide, 20 μM final concentration in the well) are preincubated for 60 min at room temperature in black 96-well microtiter plates together with a mixture of 1 μl purified human placenta 20S proteasome (Diabetes Forschungsinstitut, Düsseldorf, Germany; about 100 ng proteasome, depending on the proteasome preparation) and 47 μl buffer-Ca [5 mM CaCl2, 20 mM Tris/HCl (Tris-(hydroxymethyl)-amino-methane hydrochloride) pH 8.0]. 3 μl of a 2.67 mM solution of Suc-LLVY-AMC (Bachem, Switzerland) in DMSO (80 μM final concentration in the well) and 47 μl buffer-Ca are mixed and added. The resulting mixture is incubated for 3-24 h at 37° C. If desired, proteolysis of the substrate can be stopped by addition of 50 μl stop solution (100 mM monochloroacetic acid, 130 mM NaOH, 100 mM acetic acid, pH=4.3). The fluorescence is monitored with a FLUOROSKAN ASCENT™ microtiter plate reader.
To each measure series two control experiments have to be carried out:
1.) 0% value: 2 μl DMSO are used in the above described assay instead of 2 μl of a 1 mM solution of a test compound in DMSO and 48 μl buffer-Ca instead of a mixture of 47 μl buffer-Ca and 1 μl purified proteasome.
2.) 100% value: in the above described assay 2 μl DMSO are used instead of 2 μl of a 1 mM solution of the test compound in DMSO.
The IC50 value is defined as that concentration of a compound at which the remaining activity is 50%.

| IC50 | Structure (SMILES) |
| --- | --- |
| 150 nM | COc1ccc(CNC(=O)[C@@H](NC(=O)[C@H](NCc2ccc(OC)c(OC)c2)[C@H](O)[C@H](Cc2ccccc2)NC(=O)[C@@H](NC(=O)OCc2ccccc2)C(C)(C)C)C(C)C)c(O)c1 [Example 8, ((S)-1-{(1S,2R,3R)-1-Benzyl-3-(3,4-dimethoxy-benzylamino)-2-hydroxy-3-[(S)-1-(2-hydroxy-4-methoxy-benzylcarbamoyl)-2-methyl-propylcarbamoyl]-propylcarbamoyl}-2,2-dimethyl-propyl)-carbamic acid benzyl ester] |
| 150 nM | COc1ccc(CNC(=O)[C@@H](NC(=O)[C@H](NCc2cccc3ccccc23)[C@H](O)[C@H](Cc2ccccc2)NC(=O)[C@@H](NC(=O)Cc2cccc3ccccc23)C(C)(C)C)C(C)C)c(O)c1 [Example 15, (2R,3R,4S)-4-[(S)-3,3-Dimethyl-2-(2-naphthalen-1-yl-acetylamino)-butyrylamino]-3-hydroxy-2-[(naphthalen-1-ylmethyl)-amino]-5-phenyl-pentanoic acid [(S)-1-(2-hydroxy-4-methoxy-benzylcarbamoyl)-2-methyl-propyl]-amide] |
| 18 nM | COc1ccc(CNC(=O)[C@@H](NC(=O)[C@H](NCc2ccc(OC)c(OC)c2OC)[C@H](O)[C@H](Cc2ccccc2)NC(=O)[C@@H](NC(=O)Cc2cccc3ccccc23)C(C)(C)C)C(C)C)c(O)c1 [Example 13, (2R,3R,4S)-4-[(S)-3,3-Dimethyl-2-(2-naphthalen-1-yl-acetylamino)-butyrylamino]-3-hydroxy-5-phenyl-2-(2,3,4-trimethoxy-benzylamino)-pentanoic acid [(S)-1-(2-hydroxy-4-methoxy-benzylcarbamoyl)-2-methyl-propyl]-amide] |
| 600 nM | COc1ccc(CNC(=O)[C@@H](NC(=O)[C@H](NCc2ccc(N(C)C)cc2)[C@H](O)[C@H](Cc2ccccc2)NC(=O)[C@@H](NC(=O)OCc2ccccc2)C(C)(C)C)C(C)C)c(O)c1 [Example 2, ((S)-1-{(1S,2R,3R)-1-Benzyl-3-(4-dimethylamino-benzylamino)-2-hydroxy-3-[(S)-1-(2-hydroxy-4-methoxy-benzylcarbamoyl)-2-methyl-propylcarbamoyl]-propylcarbamoyl}-2,2-dimethyl-propyl)-carbamic acid benzyl ester] |
| 190 nM | COc1cc(CN[C@@H](C(=O)N[C@H](C(=O)NCc2ccc(OC)cc2O)C(C)C)[C@H](O)[C@H](Cc2ccccc2)NC(=O)[C@@H](NC(=O)OCc2ccccc2)C(C)(C)C)cc(OC)c1 [Example 9, ((S)-1-{(1S,2R,3R)-1-Benzyl-3-(3,5-dimethoxy-benzylamino)-2-hydroxy-3[(S)-1-(2-hydroxy-4-methoxy-benzylcarbamoyl)-2-methyl-propylcarbamoyl]-propylcarbamoyl}-2,2-dimethyl-propyl)-carbamic acid benzyl ester] |

The next lines start with the compound.

| Structure (SMILES) | IC50 |
| --- | --- |
| COc1ccc(CNC(=O)[C@@H](NC(=O)[C@H](NCc2cccc3ccccc23)[C@H](O)[C@H](Cc2ccccc2)NC(=O)[C@@H](NC(=O)OCc2ccccc2)C(C)(C)C)C(C)C)c(O)c1 [Example 1, ((S)-1-{(1S,2R,3R)-1-Benzyl-2-hydroxy-3-[(S)-1-(2-hydroxy-4-methoxy-benzylcarbamoyl)-2-methyl-propylcarbamoyl]-3-[(naphthalen-1-ylmethyl)-amino]-propylcarbamoyl}-2,2-dimethyl-propyl)-carbamic acid benzyl ester] | 260 nM |
| COc1ccc(CNC(=O)[C@@H](NC(=O)[C@H](NCc2cc(OC)c(OC)cc2OC)[C@H](O)[C@H](Cc2ccccc2)NC(=O)[C@@H](NC(=O)Cc2cccc3ccccc23)C(C)(C)C)C(C)C)c(O)c1 [Example 14, (2R,3R,4S)-4-[(S)-3,3-Dimethyl-2-(2-naphthalen-1-yl-acetylamino)-butyrylamino]-3-hydroxy-5-phenyl-2-(2,4,5-trimethoxy-benzylamino)-pentanoic acid [(S)-1-(2-hydroxy-4-methoxy-benzylcarbamoyl)-2-methyl-propyl]-amide] | 29 nM |
| COc1ccc(CNC(=O)[C@@H](NC(=O)[C@H](NCc2ccc(N(C)C)cc2)[C@H](O)[C@H](Cc2ccccc2)NC(=O)[C@@H](NC(=O)Cc2cccc3ccccc23)C(C)(C)C)C(C)C)c(O)c1 [Example 16, (2R,3R,4S)-2-(4-Dimethylamino-benzylamino)-4-[(S)-3,3-dimethyl-2-(2-naphthalen-1-yl-acetylamino)-butyrylamino]-3-hydroxy-5-phenyl-pentanoic acid [(S)-1-(2-hydroxy-4-methoxy-benzylcarbamoyl)-2-methyl-propyl]-amide] | 160 nM |
| COc1ccc(CNC(=O)[C@@H](NC(=O)[C@H](NCc2cc(OC)c(OC)c(OC)c2)[C@H](O)[C@H](Cc2ccccc2)NC(=O)[C@@H](NC(=O)OC(C)(C)C)C(C)(C)C)C(C)C)c(O)c1 [Example 11, {(S)-1-[(1S,2R,3R)-1-Benzyl-2-hydroxy-3-[(S)-1-(2-hydroxy-4-methoxy-benzylcarbamoyl)-2-methyl-propylcarbamoyl]-3-(3,4,5-trimethoxy-benzylamino)-propylcarbamoyl]-2,2-dimethyl-propyl}-carbamic acid tert-butyl ester] | 1040 nM |
| COc1ccc(CNC(=O)[C@@H](NC(=O)[C@H](NCc2cc(OC)c(OC)c(OC)c2)[C@H](O)[C@H](Cc2ccccc2)NC(=O)[C@@H](NC(=O)OCc2ccccc2)C(C)(C)C)C(C)C)c(O)c1 [Example 6, {(S)-1-[(1S,2R,3R)-1-Benzyl-2-hydroxy-3-[(S)-1-(2-hydroxy-4-methoxy-benzylcarbamoyl)-2-methyl-propylcarbamoyl]-3-(3,4,5-trimethoxy-benzylamino)-propylcarbamoyl]-2,2-dimethyl-propyl}-carbamic acid benzyl ester] | 50 nM |
| COc1ccc(CNC(=O)[C@@H](NC(=O)[C@H](NCc2ccc(OC)cc2OC)[C@H](O)[C@H](Cc2ccccc2)NC(=O)[C@@H](NC(=O)OCc2ccccc2)C(C)(C)C)C(C)C)c(O)c1 [Example 5, ((S)-1-{(1S,2R,3R)-1-Benzyl-3-(2,4-dimethoxy-benzylamino)-2-hydroxy-3-[(S)-1-(2-hydroxy-4-methoxy-benzylcarbamoyl)-2-methyl-propylcarbamoyl]-propylcarbamoyl}-2,2-dimethyl-propyl)-carbamic acid benzyl ester] | 1600 nM |
| COc1ccc(CNC(=O)[C@@H](NC(=O)[C@H](NCc2cc(OC)c(OC)cc2OC)[C@H](O)[C@H](Cc2ccccc2)NC(=O)[C@@H](NC(=O)OCc2ccccc2)C(C)(C)C)C(C)C)c(O)c1 [Example 10, {(S)-1-[(1S,2R,3R)-1-Benzyl-2-hydroxy-3-[(S)-1-(2-hydroxy-4-methoxy-benzylcarbamoyl)-2-methyl-propylcarbamoyl]-3-(2,4,5-trimethoxy-benzylamino)-propylcarbamoyl]-2,2-dimethyl-propyl}-carbamic acid benzyl ester] | 200 nM |
| COc1ccc(CN[C@@H](C(=O)N[C@H](C(=O)NCc2cc(Br)ccc2O)C(C)C)[C@H](O)[C@H](Cc2ccccc2)NC(=O)[C@@H](NC(=O)OCc2ccccc2)C(C)(C)C)cc1 [Example 3, {(S)-1-[(1S,2R,3R)-1-Benzyl-3-[(S)-1-(5-bromo-2-hydroxy-benzyl-carbamoyl)-2-methyl-propylcarbamoyl]-2-hydroxy-3-(4-methoxy-benzylamino)-propylcarbamoyl]-2,2-dimethyl-propyl}-carbamic acid benzyl ester] | 800 nM |
